Source: PMC3746205, “Two mixed-NH3/amine platinum (II) anticancer complexes featuring a dichloroacetate moiety in the leaving group” (Scientific Reports, 2013)
Several values for one entry are separate records, joined by “and”; a condition that tells them apart may be missing. Equal entries are not always repeated. Where two headings read alike, the source gives them in different places.

Legend:
[1] = system: SK-OV-3 cells (ovarian carcinoma); assay: MTS cytotoxicity assay, SK-OV-3; format: cell-based, human; details: read-out: IC50 (mean ± SD)
Description: (§1) Human lung cancer (A549), human normal lung epithelial cell line (BEAS-2B), human stomach cancer (SGC-7901) and human ovarian cancer (SK-OV-3) were purchased from ATCC, whereas cisplatin-resistant SK-OV-3 cells (SK-OV-3/DDP) were kindly provided by Chinese Academy of Medical Sciences (Beijing, China). Cells were grown in DMEM or RPMI-1640 medium (Hyclone, USA) containing 10% fetal bovine serum. Both media were supplemented with 100 units/ml of penicillin and 100 μg/ml of streptomycin. Cells were maintained at 37°C in a humidified incubator with an atmosphere of 5% CO2.
(§2) Cytotoxicity was determined by performing MTS assay. Briefly, 100 μl of cells suspension were seeded in 96-well cell culture plates and allowed to adhere overnight. The cells were treated with drugs for 48 hours, and then 20 μl of CellTiter 96® AQueous One Solution Reagent (Promega, Madison, USA) was added and the cells were further incubated at 37°C for 1–2 h. Cell viability was measured by reading the absorbance at a wavelength of 490 nm. Concentrations of 50% inhibition of growth (IC50) were calculated on the basis of the relative survival curve.

[2] = system: BEAS-2B normal lung epithelial cells; assay: MTS cytotoxicity assay, BEAS-2B; format: cell-based, human; details: read-out: IC50 (mean ± SD)
Description: as §1, §2

[3] = system: A549 cells (non-small cell lung carcinoma); assay: MTS cytotoxicity assay, A549; format: cell-based, human; details: read-out: IC50 (mean ± SD)
Description: as §1, §2

[4] = system: SGC-7901 cells (gastric carcinoma); assay: MTS cytotoxicity assay, SGC-7901; format: cell-based, human; details: read-out: IC50 (mean ± SD)
Description: as §1, §2

Solubility in solvents = format: physicochemical
A549 cells = assay: Cell apoptosis assay (Annexin-V-FITC/Propidium iodide, flow cytometry), A549; format: cell-based, human; details: t = 24 h, n = 3
Description: (§3) Human lung cancer (A549), human normal lung epithelial cell line (BEAS-2B), human stomach cancer (SGC-7901) and human ovarian cancer (SK-OV-3) were purchased from ATCC, whereas cisplatin-resistant SK-OV-3 cells (SK-OV-3/DDP) were kindly provided by Chinese Academy of Medical Sciences (Beijing, China). Cells were grown in DMEM or RPMI-1640 medium (Hyclone, USA) containing 10% fetal bovine serum. Both media were supplemented with 100 units/ml of penicillin and 100 μg/ml of streptomycin. Cells were maintained at 37°C in a humidified incubator with an atmosphere of 5% CO2. To analyze the cells for apoptosis, cells were plated and allowed to adhere overnight. Cells were treated with drugs indicated for 24 hours and then analyzed for apoptosis using Annexin-V-FITC/Propidium iodide staining. Cells were trypsinized, pelleted, washed in PBS, and resuspended in 1×binding buffer containing Annexin-V-FITC and propidium iodide (BD Pharmingen) according to the manufacturer's instructions. The samples were analyzed for the apoptosis using a FACSCalibur flow cytometer (BD Biosciences, Franklin Lakes, NJ).

Hydrolysis rate by HPLC = format: physicochemical; details: 1:10 (v/v) solution of water and methanol, within 4 hours
Description: Both complexes were nearly insoluble in water or ethanol (≈0.1 mg/ml) and slightly soluble in methanol and DMSO, but soluble in polyethyleneglycol 400 which was chosen as the solvent to make the stock solutions of the complexes for the following biological testing. The hydrolysis rate of the complexes in 1:10 (v/v) solution of water and methanol determined by HPLC was less than 2% within 4 hours and the hydrolysis products were, as expected, dichloroacetate and 1b for complex 1a, or 2b for complex 2a. Complexes 1b and 2b were also synthesized for comparison in HPLC measurements as well as in biological tests. As 1b and 2b were found very soluble in water (>25 mg/ml) compared with 1a or 2a, another synthetic reaction was employed to produce the desired complexes. Accordingly complexes 1b and 2b also have two positional isomeric forms. All the complexes used in our studies were, in fact, a mixture of two isomeric forms.
An Agilent Zorbax SB-C18 column (4.6 × 250 mm, 5 μm) was used with CH3OH/H2O as the mobile phase. The flow rate was 1.0 ml/min, and the column temperature is 40°C. The detection wavelength was 238 nm and the injection volume was 10 μl.

[5] = system: cisplatin-resistant SK-OV-3 cells (SK-OV-3/DDP); assay: MTS cytotoxicity assay, cisplatin-resistant SK-OV-3/DDP; format: cell-based, human; details: for IC50: SK-OV-3/DDP cisplatin-resistant, MTS, t = 48 h, n = 3, read-out: IC50 (mean ± SD); for Resistance Index: ratio of IC50 value of resistant cells (SK-OV-3/DDP) to that of sensitive cells (SK-OV-3)
Description: Cross-resistance profile of the complexes 1a and 2a was evaluated. Resistance Index was defined as the ratio of IC50 value of resistant cells to that of sensitive cells. SK-OV-3 and cisplatin-resistant SK-OV-3 cells (SK-OV-3/DDP) cell lines were chosen for MTS assay because drug resistance frequently occurred in the chemotherapy of ovarian tumors. […] The results may be attributed to the synergistic effect between the platinum pharmacophores and DCA released by the hydrolysis of 1a and 2a in the cells.
as §1, §2

[6] = system: BEAS-2B normal human lung bronchial epithelial cells; assay: Cell apoptosis assay (Annexin-V-FITC/Propidium iodide, flow cytometry), BEAS-2B; format: cell-based; details: t = 24 h, n = 3
Description: as §3

[7] = SK-OV-3, MTS, t = 48 h, n = 3, Table 1
[8] = BEAS-2B normal cells, MTS, t = 48 h, n = 3
[9] = SK-OV-3 (sensitive), MTS, t = 48 h, n = 3, Table 3 cross-resistance experiment

SMILES	IC50 [1, 7] [µM]	IC50 [2, 8] [µM]	IC50 ([3]; A549, MTS, t = 48 h, n = 3) [µM]	IC50 ([4]; SGC-7901, MTS, t = 48 h, n = 3) [µM]	IC50 [1, 9] [µM]	IC50 [5] [µM]	Resistance Index [5]	further results
N.NC1CCCC1.O=C1[O][Pt][O]C(=O)C12CC(O)C2 [Complex 1b]	74.2 ± 2.64	79.9 ± 2.57	61.5 ± 7.98	56.2 ± 4.88				Solubility in water (Solubility in solvents): > 25 mg/mL
N.NC1CCCC1.O=C(OC1CC2(C1)C(=O)[O][Pt][O]C2=O)C(Cl)Cl [Complex 1a]	18.1 ± 0.85	61.5 ± 1.5	17.1 ± 1.55	21.9 ± 1.96	17.8 ± 3.97	18.1 ± 2.41	≈1	Apoptosis, % (mean ± SD) (A549 cells; A549, 12.5 μM): 18.93% and 18.93 ± 3.83%; Apoptosis, % (mean ± SD) (A549 cells; A549, 25 μM): 26.76 ± 2.33%; Apoptosis, % (mean ± SD) (A549 cells; A549, 50 μM): 40.93 ± 9.66%; Apoptosis, % (mean ± SD) (A549 cells; A549, 100 μM): 67.46 ± 8.06%; Hydrolysis rate (Hydrolysis rate by HPLC): less than 2%; Apoptosis, % (mean ± SD) ([6]; 12.5 μM): 0.71 ± 0.45%; Apoptosis, % (mean ± SD) ([6]; 25 μM): 1.24 ± 1.73%; Apoptosis, % (mean ± SD) ([6]; 50 μM): 1.27 ± 0.92%; Apoptosis, % (mean ± SD) ([6]; 100 μM): 2.88% and 2.88 ± 2.15%
O=C(O)C(Cl)Cl [DCA, Dichloroacetate]								IC50 ([1]; Homo sapiens, SK-OV-3, 48 h): > 200 µM; IC50 ([2]; Homo sapiens, BEAS-2B, 48 h): > 200 µM; IC50 ([3]; Homo sapiens, A549, 48 h): > 200 µM; IC50 ([4]; Homo sapiens, SGC-7901, 48 h): > 200 µM
N.NC1CCCCC1.O=C(OC1CC2(C1)C(=O)[O][Pt][O]C2=O)C(Cl)Cl [Complex 2a]	11.5 ± 0.91	52.1 ± 3.12	15.3 ± 1.12	16.7 ± 0.82	10.1 ± 2.38	11.1 ± 0.63	≈1	Hydrolysis rate (Hydrolysis rate by HPLC): less than 2%
N.N.[Cl][Pt][Cl] [Cisplatin, cisplatin, reference compound]	5.04 ± 0.25	11.7 ± 0.51	14.8 ± 1.02	13.6 ± 1.03	5.15 ± 1.38	19.2 ± 0.94	≈4	Apoptosis, % (mean ± SD) (A549 cells; A549, 12.5 μM): 20.09 ± 3.06%; Apoptosis, % (mean ± SD) (A549 cells; A549, 25 μM): 32.84 ± 5.48%; Apoptosis, % (mean ± SD) (A549 cells; A549, 50 μM): 50.51 ± 6.42%; Apoptosis, % (mean ± SD) (A549 cells; A549, 100 μM): 56.28 ± 6.91%; Apoptosis, % (mean ± SD) ([6]; 12.5 μM): 2.64 ± 1.43%; Apoptosis, % (mean ± SD) ([6]; 25 μM): 5.86 ± 1.30%; Apoptosis, % (mean ± SD) ([6]; 50 μM): 38.93 ± 5.26%; Apoptosis, % (mean ± SD) ([6]; 100 μM): 42.80 ± 3.40%
N.N.O=C([O-])C1(C(=O)[O-])CCC1.[Pt+2] [Carboplatin, carboplatin, reference compound]	65.3 ± 3.55	74.4 ± 2.51	141 ± 11.3	127 ± 11.8				
N.NC1CCCCC1.O=C1[O][Pt][O]C(=O)C12CC(O)C2 [Complex 2b]	78.2 ± 1.85	75 ± 4.83	71.5 ± 5.21	69.5 ± 2.31				Solubility in water (Solubility in solvents): > 25 mg/mL
